# Results taken from patent US9351486B2, “Combinations of derivatized saccharide surfactants and etheramine oxide surfactants as herbicide adjuvants” (Monsanto Technology LLC, priority 2008, dated 2016).
# What was measured:
# Assay type in all cases: in vivo
# MALSI, cheeseweed = assay: Greenhouse herbicidal efficacy on MALSI; details: Example ET9; average for 100, 200 and 400 g a.e./ha application rates
# Protocol: (§1) Spray compositions of the Examples, containing an exogenous chemical, such as glyphosate potassium salt, in addition to the excipient ingredients listed, were evaluated for herbicidal efficacy according to the following method.
# The amount of exogenous chemical was selected to provide the desired rate in grams per hectare (g/ha) when applied in a spray volume of 93 l/ha. Several exogenous chemical rates were applied for each composition. […]
# (§2) The efficacy of potassium glyphosate formulations containing various ratios of APG surfactants to EAO surfactants were evaluated in greenhouse trials as compared to comparative compositions 139R8H and 276U4D. The efficacy of each formulation, surfactant and comparative composition was evaluated at application rates of 200, 400 and 600 g glyphosate a.e. per hectare and the results are reported in Table ET4A wherein APG:EAO is the weight ratio of APG surfactant to EAO surfactant and Gly:Surf is the weight ratio of glyphosate a.e. to total surfactant. For each plant species, efficacy results are reported as the average % control for the three application rates (Table ET4a) and the calculated application rate (g a.e./ha) that must be applied to achieve 85% control (Table ET4b).
# [1] = system: CHEAL, common lambsquarters (Chenopodium album L.); assay: Greenhouse herbicidal efficacy on CHEAL
# Protocol: as §1
# (§3) The amount of exogenous chemical was selected to provide the desired rate in grams per hectare (g/ha) when applied in a spray volume of 93 l/ha. Several exogenous chemical rates were applied for each composition. Thus, except where otherwise indicated, when spray compositions were tested, the concentration of exogenous chemical varied in direct proportion to exogenous chemical rate, but the concentration of excipient ingredients was held constant across different exogenous chemical rates.
# (§4) Concentrate compositions were tested by dilution, dissolution or dispersion in water to form spray compositions. In these spray compositions prepared from concentrates, the concentration of excipient ingredients varied with that of exogenous chemical.
# (§5) The herbicidal effectiveness data set forth herein report “inhibition” as a percentage following a standard procedure in the art which reflects a visual assessment of plant mortality and growth reduction by comparison with untreated plants, made by technicians specially trained to make and record such observations. In all cases, a single technician makes all assessments of percent inhibition within any one experiment or trial. Such measurements are relied upon and regularly reported by Monsanto Company in the course of its herbicide business.
# [2] = system: LOLMU, Italian ryegrass (Lolium multiflorum Lam.); assay: Greenhouse herbicidal efficacy on LOLMU; details: for Application rate required for 85% control, LOLMU: calculated from rates 100, 200 and 400 g a.e./ha; for Average % control, LOLMU: average for 100, 200 and 400 g a.e./ha application rates
# Protocol: as §1, §3, §4, §5
# (§6) The efficacy of potassium glyphosate formulations containing an APG surfactant and an EAO surfactant in an APG:EAO weight ratio of 4:1 and a glyphosate a.e. to total surfactant weight ratio of about 2.9:1 were evaluated in greenhouse trials. Also evaluated were potassium glyphosate compositions containing either an alkylpolyglucoside surfactant (designated as “Surfactant L” and “Surfactant N”) or an alkoxylated etheramine oxide surfactant (designated as “Surfactant G”) wherein the weight ratio of glyphosate a.e. to surfactant was about 2.9:1. Finally, the efficacy of potassium glyphosate not containing a surfactant (K-GLY) and comparative compositions 139R8H and 294T6K were also evaluated. The efficacy of each formulation, surfactant and comparative composition was evaluated at application rates of 100, 200 and 400 g glyphosate a.e. per hectare.
# (§7) The efficacy of potassium glyphosate formulations containing various APG surfactants and an EAO surfactant in an APG:EAO weight ratios and glyphosate a.e. to total surfactant weight ratios (Gly:Surf) as indicated in the tables below. Finally, the efficacy of comparative standard compositions 139R8H and 294T6K were also evaluated. The efficacy of each formulation, surfactant and comparative composition was evaluated at application rates of 100, 200 and 400 g glyphosate a.e. per hectare.
# [3] = system: ABUTH, velvetleaf (Abutilon theophrasti Medik.); assay: Greenhouse herbicidal efficacy on ABUTH; details: for Average % control, ABUTH: average for 100, 200 and 400 g a.e./ha application rates
# Protocol: as §1, §3, §4
# (§8) The herbicidal effectiveness data set forth herein report “inhibition” as a percentage following a standard procedure in the art which reflects a visual assessment of plant mortality and growth reduction by comparison with untreated plants, made by technicians specially trained to make and record such observations. In all cases, a single technician makes all assessments of percent inhibition within any one experiment or trial. […]
# (§9) The efficacy of formulations containing potassium glyphosate and an APG surfactant (formulation 179W2N) or an EAO surfactant (formulation 179R6U) in a weight percent ratio of glyphosate a.e. to surfactant of 4:1 was evaluated in greenhouse trials as compared to compositions 276U4D, 351L9P, 294T6K and K-GLY. The efficacy of each formulation, surfactant and comparative composition was evaluated at application rates of 100, 200 and 400 g glyphosate a.e. per hectare and the results are reported in Table ET8A wherein APG:EAO is the weight ratio of alkylpolyglucoside (APG) surfactant to alkoxylated amine oxide (EAO) surfactant and Gly:Surf is the weight ratio of glyphosate a.e. to total surfactant. […]
# LOLMG, annual ryegrass = assay: Greenhouse herbicidal efficacy on LOLMG
# Protocol: as §1, §3, §4, §8, §9
# [4] = system: VIOAR, Field violet (Viola arvensis Murr.); assay: Greenhouse herbicidal efficacy on VIOAR
# Protocol: as §1, §3, §4, §5, §6
# as §2, with “surfactant.” for “surfactant. For each plant species, efficacy results are reported as the average % control for the three application rates (Table ET4a) and the calculated application rate (g a.e./ha) that must be applied to achieve 85% control (Table ET4b).”
# (§10) The efficacy of potassium glyphosate formulations containing Atplus 452 and EAO surfactants were evaluated in greenhouse trials. The efficacy of each formulation, surfactant and comparative composition was evaluated at application rates of 100, 200, 300 and 400 g glyphosate a.e. per hectare and the results are reported in Table ET5A wherein APG:EAO is the weight ratio of APG surfactant to EAO surfactant and Gly:Surf is the weight ratio of glyphosate a.e. to total surfactant.
# [5] = system: SINAR, wild mustard (Sinapis arvensis L.); assay: Greenhouse herbicidal efficacy on SINAR
# Protocol: as §1, §3, §4, §5, §6, §7
# as §10, with “various ratios of APG surfactants to” for “Atplus 452 and”, “trials as compared to comparative compositions 139R8H and 276U4D.” for “trials.”, “of” for “of 100,”, “400” for “300”, “600” for “400”, “ET4A” for “ET5A”
# [6] = Example ET3, average for 100, 200 and 400 g a.e./ha application rates
# [7] = Example ET3, calculated from rates 100, 200 and 400 g a.e./ha
# [8] = Example ET6, average for 200, 400 and 600 g a.e./ha application rates
# [9] = Example ET6, calculated from rates 200, 400 and 600 g a.e./ha
# [10] = Example ET1, greenhouse, average of the three application rates
# [11] = Example ET2, calculated from rates 100, 200 and 400 g a.e./ha
# [12] = Example ET5, average for 100, 200, 300 and 400 g a.e./ha application rates
# [13] = Example ET5, calculated from rates 100, 200, 300 and 400 g a.e./ha
# [14] = Example ET9, average for 100, 200 and 400 g a.e./ha application rates
# [15] = Example ET1, calculated from rates 100, 200 and 400 g a.e./ha
smiles,measurement,setting,value
"O=C(O)CNCP(=O)([O-])O.[K+] [K-GLY, potassium glyphosate]","Average % control, MALSI","MALSI, cheeseweed",22.8%
same,"Average % control, CHEAL",[1]; [6],5.0%
same,"Application rate required for 85% control, CHEAL",[1]; [7],>400.0 g a.e./ha
same,CHEAL (ave. cntrl),[1]; [8],33.3%
same,CHEAL (g a.e./ha for 85% control),[1]; [9],>600.0 g a.e./ha
same,"Application rate required for 85% control, LOLMU",[2]; Example ET1,>400.0 g a.e./ha
same,"Average % control for 100, 200 and 400 g a.e./ha application rates, LOLMU",[2]; [10],40.8%
same,"Average % control, LOLMU",[2]; Example ET2,58.1%
same,"Application rate required for 85% control, LOLMU",[2]; Example ET2,>400.0 g a.e./ha
same,"Average % control, LOLMU",[2]; Example ET3,27.9%
same,"Application rate required for 85% control, LOLMU",[2]; Example ET3,>400.0 g a.e./ha
same,LOLMU 23 DAT (ave. control),"[2]; Example ET7, 23 DAT, average for 50, 100 and 300 g a.e./ha application rates",48.3%
same,LOLMU 23 DAT (g a.e./ha for 85% control),"[2]; Example ET7, 23 DAT, calculated from rates 50, 100 and 300 g a.e./ha",>300.0 g a.e./ha
same,"Average % control, ABUTH",[3]; Example ET2,40.0%
same,"Application rate required for 85% control, ABUTH",[3]; [11],400.0 g a.e./ha
same,"Average % control, ABUTH",[3]; Example ET9,27.2%
same,"Average % control, LOLMG","LOLMG, annual ryegrass; [12]",42.5%
same,"Application rate required for 85% control, LOLMG","LOLMG, annual ryegrass; [13]",>400.0 g a.e./ha
same,"Average % control, LOLMG","LOLMG, annual ryegrass; [14]",37.8%
same,"Application rate required for 85% control, VIOAR",[4]; [15],>400.0 g a.e./ha
same,"Average % control for 100, 200 and 400 g a.e./ha application rates, VIOAR",[4]; [10],39.2%
same,"Average % control, VIOAR",[4]; [6],27.5%
same,"Application rate required for 85% control, VIOAR",[4]; [7],>400.0 g a.e./ha
same,"Average % control, VIOAR",[4]; [12],34.7%
same,"Application rate required for 85% control, VIOAR",[4]; [13],>400.0 g a.e./ha
same,VIOAR (ave. cntrl),[4]; [8],31.7%
same,VIOAR (g a.e./ha for 85% control),[4]; [9],>600.0 g a.e./ha
same,"Average % control, VIOAR",[4]; [14],36.7%
same,"Application rate required for 85% control, SINAR",[5]; [15],>400.0 g a.e./ha
same,"Average % control for 100, 200 and 400 g a.e./ha application rates, SINAR",[5]; [10],67.5%
same,"Average % control, SINAR","[5]; Example ET2, average for 100, 200 and 400 g a.e./ha application rates",64.1%
same,"Application rate required for 85% control, SINAR",[5]; [11],>400.0 g a.e./ha
same,"Average % control, SINAR",[5]; [12],72.5%
same,"Application rate required for 85% control, SINAR",[5]; [13],366.7 g a.e./ha
same,SINAR 10 DAT (ave. Ctrl),"[5]; Example ET7, 10 DAT, average for 50, 100 and 300 g a.e./ha application rates",74.6%
same,SINAR 10 DAT (g a.e./ha for 85% control),"[5]; Example ET7, 10 DAT, calculated from rates 50, 100 and 300 g a.e./ha",227.3 g a.e./ha
